Measurements taken from the NIST ThermoML archive (doi:10.1021/acs.jced.7b00035).
Where “and” joins values, the source holds several entries; their conditions need not be identical. Equal values may be shown once.

Columns and labels:
[1] = xn = mol fraction of the nth substance listed; settings: 100 kPa, Liquid, Vibrating tube method
[2] = excess molar enthalpy (molar enthalpy of mixing); xn = mol fraction of the nth substance listed; settings: 100 kPa, Liquid, Flow calorimetry

CCC(=O)CC [pentan-3-one] + O
Settings	excess molar enthalpy, [2] [kcal/mol]	mass density, [1] [kg/m3]
288.15 K, x1 = 0.000848	-0.00261	998.595
288.15 K, x1 = 0.000849	-0.00264	998.589
288.15 K, x1 = 0.001695	-0.00514	998.107
288.15 K, x1 = 0.001696	-0.0052	998.104
288.15 K, x1 = 0.00254	-0.00771	997.609
288.15 K, x1 = 0.002542	-0.00769	997.616
288.15 K, x1 = 0.003385	-0.0102	997.144
288.15 K, x1 = 0.003386	-0.0102	997.139
288.15 K, x1 = 0.004227	-0.0127	996.667
288.15 K, x1 = 0.004229	-0.0126	996.682
288.15 K, x1 = 0.005069	-0.015	996.228
288.15 K, x1 = 0.005071	-0.015	996.221
298.15 K, x1 = 0.000847	-0.00214	996.504
298.15 K, x1 = 0.001693	-0.00429	995.96
298.15 K, x1 = 0.001694	-0.00426	995.958
298.15 K, x1 = 0.002537	-0.00626	995.458
298.15 K, x1 = 0.002539	-0.0063	995.442
298.15 K, x1 = 0.00338	-0.00823	994.944
298.15 K, x1 = 0.003383	-0.0083	994.931
298.15 K, x1 = 0.004222	-0.0103	994.42
298.15 K, x1 = 0.004225	-0.0103	994.423
298.15 K, x1 = 0.005064	-0.0123	993.924
298.15 K, x1 = 0.005066	-0.0123	993.902
308.15 K, x1 = 0.000848	-0.00167	993.46
308.15 K, x1 = 0.000849	-0.00169	993.449
308.15 K, x1 = 0.001695	-0.00332	992.887
308.15 K, x1 = 0.001696	-0.00332	992.873
308.15 K, x1 = 0.00254	-0.00493	992.322
308.15 K, x1 = 0.002543	-0.00497	992.311
308.15 K, x1 = 0.003384	-0.00646	991.77
308.15 K, x1 = 0.003387	-0.00641	991.774
308.15 K, x1 = 0.004226	-0.00797	991.241
308.15 K, x1 = 0.004231	-0.00798	991.216
308.15 K, x1 = 0.005069	-0.00955	990.666
308.15 K, x1 = 0.005074	-0.00957	990.66
318.15 K, x1 = 0.000849	-0.00121	989.61
318.15 K, x1 = 0.00085	-0.00122	989.603
318.15 K, x1 = 0.001697	-0.00241	989.005
318.15 K, x1 = 0.001698	-0.00241	988.992
318.15 K, x1 = 0.002543	-0.00355	988.399
318.15 K, x1 = 0.002544	-0.00357	988.396
318.15 K, x1 = 0.003388	-0.00462	987.821
318.15 K, x1 = 0.00339	-0.00467	987.82
318.15 K, x1 = 0.004231	-0.00576	987.229
318.15 K, x1 = 0.004233	-0.00573	987.234
318.15 K, x1 = 0.005073	-0.00678	986.636
318.15 K, x1 = 0.005076	-0.00682	986.636

CCCC(C)=O [pentan-2-one] + O
Settings	excess molar enthalpy, [2]	mass density, [1]
288.15 K, x1 = 0.000842	-0.00254 kcal/mol and -0.00255 kcal/mol	998.562 kg/m3 and 998.56 kg/m3
288.15 K, x1 = 0.001683	-0.00506 kcal/mol	998.027 kg/m3 and 998.026 kg/m3
288.15 K, x1 = 0.002522	-0.00753 kcal/mol and -0.00751 kcal/mol	997.512 kg/m3 and 997.513 kg/m3
288.15 K, x1 = 0.00336	-0.00987 kcal/mol	997.021 kg/m3
288.15 K, x1 = 0.003361	-0.00991 kcal/mol	997.002 kg/m3
288.15 K, x1 = 0.004197	-0.0122 kcal/mol	996.522 kg/m3
288.15 K, x1 = 0.004198	-0.0123 kcal/mol	996.499 kg/m3
288.15 K, x1 = 0.005032	-0.0146 kcal/mol	996.016 kg/m3
288.15 K, x1 = 0.005035	-0.0146 kcal/mol	996.015 kg/m3
298.15 K, x1 = 0.000841	-0.00207 kcal/mol	996.472 kg/m3
298.15 K, x1 = 0.000842	-0.00207 kcal/mol	996.472 kg/m3
298.15 K, x1 = 0.001681	-0.00411 kcal/mol	995.903 kg/m3
298.15 K, x1 = 0.001682	-0.00412 kcal/mol	995.902 kg/m3
298.15 K, x1 = 0.00252	-0.00613 kcal/mol	995.346 kg/m3
298.15 K, x1 = 0.002521	-0.00617 kcal/mol	995.334 kg/m3
298.15 K, x1 = 0.003357	-0.00809 kcal/mol	994.797 kg/m3
298.15 K, x1 = 0.003358	-0.008 kcal/mol	994.811 kg/m3
298.15 K, x1 = 0.004193	-0.00999 kcal/mol and -0.00995 kcal/mol	994.25 kg/m3 and 994.26 kg/m3
298.15 K, x1 = 0.005028	-0.0119 kcal/mol	993.716 kg/m3
298.15 K, x1 = 0.005029	-0.0119 kcal/mol	993.707 kg/m3
308.15 K, x1 = 0.000841	-0.00163 kcal/mol	–
308.15 K, x1 = 0.000842	-0.00164 kcal/mol	993.42 kg/m3
308.15 K, x1 = 0.001681	-0.00322 kcal/mol	992.814 kg/m3
308.15 K, x1 = 0.001683	-0.00322 kcal/mol	992.818 kg/m3
308.15 K, x1 = 0.00252	-0.00476 kcal/mol	992.226 kg/m3
308.15 K, x1 = 0.002522	-0.00473 kcal/mol	992.228 kg/m3
308.15 K, x1 = 0.003358	-0.00626 kcal/mol	991.617 kg/m3
308.15 K, x1 = 0.00336	-0.00623 kcal/mol	991.643 kg/m3
308.15 K, x1 = 0.004194	-0.00773 kcal/mol	991.052 kg/m3
308.15 K, x1 = 0.004197	-0.00775 kcal/mol	991.045 kg/m3
308.15 K, x1 = 0.005031	-0.00918 kcal/mol	990.475 kg/m3
308.15 K, x1 = 0.005034	-0.00916 kcal/mol	990.474 kg/m3
318.15 K, x1 = 0.00084	-0.00118 kcal/mol	989.57 kg/m3
318.15 K, x1 = 0.001679	-0.00232 kcal/mol	988.929 kg/m3
318.15 K, x1 = 0.002517	-0.00341 kcal/mol	988.307 kg/m3
318.15 K, x1 = 0.003354	-0.0045 kcal/mol	987.666 kg/m3
318.15 K, x1 = 0.004189	-0.00553 kcal/mol	987.058 kg/m3
318.15 K, x1 = 0.005024	-0.0065 kcal/mol	986.447 kg/m3
